Experimental findings from article PMC5218480 (PLoS ONE, 2017) are described below.

SMILES strings stand for the structures.

The subject of the experiment is MV-4-11 cells. Briefly: Gene expression microarray analysis (Affymetrix PrimeView) and GSEA. The experiment is classed as cell-based, human. The arrangement: RFU PODN (11730768_x_at) / Fold change /veh PODN (11730768_x_at) / RFU LINC00158 (11744669_a_at) / Fold change /veh LINC00158 (11744669_a_at) / RFU DUSP10 (11751237_a_at) / Fold change /veh DUSP10 (11751237_a_at) / RFU ID3 (11757404_x_at) / Fold change /veh ID3 (11757404_x_at) / RFU PLEKHG5 (11737974_s_at) / Fold change /veh PLEKHG5 (11737974_s_at) / RFU LRRC4B (11730491_at) / Fold change /veh LRRC4B (11730491_at) / RFU GIMAP4 (11747438_a_at) / Fold change /veh GIMAP4 (11747438_a_at) / RFU KRT8 (11758183_x_at) / Fold change /veh KRT8 (11758183_x_at) / RFU CNN1 (11734310_a_at) / Fold change /veh CNN1 (11734310_a_at) / RFU VPS37D (11726825_at) / Fold change /veh VPS37D (11726825_at) / RFU C10orf10 (11716522_x_at) / Fold change /veh C10orf10 (11716522_x_at) / RFU KIR2DL2 /// KIR2DL4 /// KIR2DL5A /// KIR2DL5B /// KIR2DS1 /// KIR2DS2 /// KIR2DS3 /// KIR2DS4 /// KIR3DL3 /// KIR3DL3 /// KIR3DS1 (11738374_at) / Fold change /veh KIR2DL2 /// KIR2DL4 /// KIR2DL5A /// KIR2DL5B /// KIR2DS1 /// KIR2DS2 /// KIR2DS3 /// KIR2DS4 /// KIR3DL3 /// KIR3DL3 /// KIR3DS1 (11738374_at) / RFU C1QL1 (11718748_at) / Fold change /veh C1QL1 (11718748_at) / RFU TMPRSS4 (11747572_a_at) / Fold change /veh TMPRSS4 (11747572_a_at) / RFU HAMP (11756126_x_at) / Fold change /veh HAMP (11756126_x_at) / RFU RNFT2 (11725882_a_at) / Fold change /veh RNFT2 (11725882_a_at) / RFU NR4A2 (11747474_a_at) / Fold change /veh NR4A2 (11747474_a_at) / RFU ABCC12 (11746883_a_at) / Fold change /veh ABCC12 (11746883_a_at) / RFU TMEM136 (11760407_x_at) / Fold change /veh TMEM136 (11760407_x_at) / RFU CLDN22 /// WWC2 (11732394_at) / Fold change /veh CLDN22 /// WWC2 (11732394_at) / RFU HLA-DPB1 (11760878_x_at) / Fold change /veh HLA-DPB1 (11760878_x_at) / RFU SPINT1 (11716480_a_at) / Fold change /veh SPINT1 (11716480_a_at) / RFU GAP43 (11754022_s_at) / Fold change /veh GAP43 (11754022_s_at) / RFU A4GNT (11735810_at) / Fold change /veh A4GNT (11735810_at) / RFU PRB3 (11715151_x_at) / Fold change /veh PRB3 (11715151_x_at) / RFU TUBB4B (11761932_at) / Fold change /veh TUBB4B (11761932_at) / RFU CAPN14 (11732068_a_at) / Fold change /veh CAPN14 (11732068_a_at) / RFU TMCC2 (11721928_a_at) / Fold change /veh TMCC2 (11721928_a_at) / RFU IRGQ (11745062_a_at) / Fold change /veh IRGQ (11745062_a_at) / RFU FAM174B (11720279_a_at) / Fold change /veh FAM174B (11720279_a_at) / RFU TMPRSS4 (11748680_a_at) / Fold change /veh TMPRSS4 (11748680_a_at) / RFU FAM212B (11763350_a_at) / Fold change /veh FAM212B (11763350_a_at) / RFU PLEKHG5 (11743358_a_at) / Fold change /veh PLEKHG5 (11743358_a_at) / RFU ZSCAN30 (11745921_a_at) / Fold change /veh ZSCAN30 (11745921_a_at) / RFU CMKLR1 (11741424_a_at) / Fold change /veh CMKLR1 (11741424_a_at) / RFU LOC101060620 /// MAPK8IP1 (11723275_at) / Fold change /veh LOC101060620 /// MAPK8IP1 (11723275_at) / RFU SPTSSB (11747773_x_at) / Fold change /veh SPTSSB (11747773_x_at) / RFU PRSS12 (11739890_at) / Fold change /veh PRSS12 (11739890_at) / RFU BIN1 (11741810_x_at) / Fold change /veh BIN1 (11741810_x_at) / RFU WNT11 (11732464_a_at) / Fold change /veh WNT11 (11732464_a_at) / RFU C10orf10 (11716521_a_at) / Fold change /veh C10orf10 (11716521_a_at) / RFU C5orf56 (11738089_at) / Fold change /veh C5orf56 (11738089_at) / RFU CYB561 (11721691_x_at) / Fold change /veh CYB561 (11721691_x_at) / RFU ANKRD19P (11752326_a_at) / Fold change /veh ANKRD19P (11752326_a_at) / RFU OR2T12 /// OR2T33 /// OR2T8 (11738714_s_at) / Fold change /veh OR2T12 /// OR2T33 /// OR2T8 (11738714_s_at) / RFU VCAN (11748164_a_at) / Fold change /veh VCAN (11748164_a_at) / RFU JSRP1 (11732532_at) / Fold change /veh JSRP1 (11732532_at) / RFU KRTAP10-11 (11738290_x_at) / Fold change /veh KRTAP10-11 (11738290_x_at) / RFU MYO3A (11730013_a_at) / Fold change /veh MYO3A (11730013_a_at) / RFU EBF3 (11725865_a_at) / Fold change /veh EBF3 (11725865_a_at) / RFU CAMK2N1 (11719241_x_at) / Fold change /veh CAMK2N1 (11719241_x_at) / RFU C5orf56 (11738088_a_at) / Fold change /veh C5orf56 (11738088_a_at) / RFU OLFML3 (11715873_a_at) / Fold change /veh OLFML3 (11715873_a_at) / RFU LOC100653217 /// NTM (11731650_a_at) / Fold change /veh LOC100653217 /// NTM (11731650_a_at) / RFU MAPK11 (11762145_a_at) / Fold change /veh MAPK11 (11762145_a_at) / RFU FIZ1 (11724087_x_at) / Fold change /veh FIZ1 (11724087_x_at) / RFU OASL (11726364_x_at) / Fold change /veh OASL (11726364_x_at) / RFU SOX15 (11748057_x_at) / Fold change /veh SOX15 (11748057_x_at) / RFU CD79A (11719716_a_at) / Fold change /veh CD79A (11719716_a_at) / RFU HIST1H1D (11736915_at) / Fold change /veh HIST1H1D (11736915_at) / RFU CASKIN2 (11723855_a_at) / Fold change /veh CASKIN2 (11723855_a_at) / RFU LOC730098 (11760151_x_at) / Fold change /veh LOC730098 (11760151_x_at) / RFU OR4N2 (11742367_at) / Fold change /veh OR4N2 (11742367_at) / RFU PRRT2 (11749266_a_at) / Fold change /veh PRRT2 (11749266_a_at) / RFU SNX32 (11753110_a_at) / Fold change /veh SNX32 (11753110_a_at) / RFU CDHR5 (11726645_a_at) / Fold change /veh CDHR5 (11726645_a_at) / RFU RCAN1 (11760418_a_at) / Fold change /veh RCAN1 (11760418_a_at) / RFU FAM167A (11723789_a_at) / Fold change /veh FAM167A (11723789_a_at) / RFU FAM26E (11764081_at) / Fold change /veh FAM26E (11764081_at) / RFU ISYNA1 (11749810_s_at) / Fold change /veh ISYNA1 (11749810_s_at) / RFU ACY1 (11761880_at) / Fold change /veh ACY1 (11761880_at) / RFU 11764098_at / Fold change /veh 11764098_at / RFU SAMD14 (11745864_x_at) / Fold change /veh SAMD14 (11745864_x_at) / RFU NPB (11741838_a_at) / Fold change /veh NPB (11741838_a_at) / RFU TMPRSS6 (11731388_a_at) / Fold change /veh TMPRSS6 (11731388_a_at) / RFU KRTAP10-2 (11738614_at) / Fold change /veh KRTAP10-2 (11738614_at) / RFU ARHGAP8 /// PRR5-ARHGAP8 (11727945_x_at) / Fold change /veh ARHGAP8 /// PRR5-ARHGAP8 (11727945_x_at) / RFU KRTAP5-7 /// NADSYN1 (11734609_at) / Fold change /veh KRTAP5-7 /// NADSYN1 (11734609_at) / RFU RASL12 (11751679_a_at) / Fold change /veh RASL12 (11751679_a_at) / RFU CDKN2B (11736163_a_at) / Fold change /veh CDKN2B (11736163_a_at) / RFU PRF1 (11729649_at) / Fold change /veh PRF1 (11729649_at) / RFU, ZNF638 /// ZNF638-IT1 / Fold change vs veh, ZNF638 /// ZNF638-IT1 / RFU, PANK3 / Fold change vs veh, PANK3 / RFU, SH3YL1 / Fold change vs veh, SH3YL1 / RFU, ZEB2 / Fold change vs veh, ZEB2 / RFU, NRIP1 / Fold change vs veh, NRIP1 / RFU, PTTG1IP / Fold change vs veh, PTTG1IP / RFU, CAPN2 / Fold change vs veh, CAPN2 / RFU, MED14 / Fold change vs veh, MED14 / RFU, SNORA58 / Fold change vs veh, SNORA58 / RFU, C1orf63 / Fold change vs veh, C1orf63 / RFU, LRRFIP1 / Fold change vs veh, LRRFIP1 / RFU, NDUFAF7 / Fold change vs veh, NDUFAF7 / RFU, SLC12A2 / Fold change vs veh, SLC12A2 / RFU, IBTK / Fold change vs veh, IBTK / RFU, ESF1 / Fold change vs veh, ESF1 / Fold change vs veh, TMEM50B / RFU, TAOK1 / Fold change vs veh, TAOK1 / RFU, ACBD3 / Fold change vs veh, ACBD3 / RFU, TMA16 / Fold change vs veh, TMA16 / RFU, RWDD3 / Fold change vs veh, RWDD3 / RFU, BCAT1 / Fold change vs veh, BCAT1 / RFU, EDEM3 / Fold change vs veh, EDEM3 / RFU, TMEM33 / Fold change vs veh, TMEM33 / RFU, WDR75 / Fold change vs veh, WDR75 / RFU, AHCTF1 / Fold change vs veh, AHCTF1 / RFU, TFRC / Fold change vs veh, TFRC / RFU, ZDHHC17 / Fold change vs veh, ZDHHC17 / RFU, NOM1 / Fold change vs veh, NOM1 / RFU, ARL8B / Fold change vs veh, ARL8B / RFU, ZBTB11 / Fold change vs veh, ZBTB11 / RFU, TAMM41 / Fold change vs veh, TAMM41 / RFU, KIAA1704 /// LOC100996395 / Fold change vs veh, KIAA1704 /// LOC100996395 / RFU, ING1 / Fold change vs veh, ING1 / RFU, TRMT61B / Fold change vs veh, TRMT61B / RFU, FUBP3 / Fold change vs veh, FUBP3 / RFU, TP53 / Fold change vs veh, TP53 / RFU, TNKS2 / Fold change vs veh, TNKS2 / RFU, ZFP14 / Fold change vs veh, ZFP14 / RFU, ACTR2 / Fold change vs veh, ACTR2 / RFU, PPP3R1 / Fold change vs veh, PPP3R1 / RFU, PIK3R1 / Fold change vs veh, PIK3R1 / RFU, HNRNPA1 / Fold change vs veh, HNRNPA1 / RFU, RNF170 / Fold change vs veh, RNF170 / RFU, ZNF28 / Fold change vs veh, ZNF28 / RFU, RNGTT / Fold change vs veh, RNGTT / RFU, OGT / Fold change vs veh, OGT / RFU, BRD1 / Fold change vs veh, BRD1 / RFU, MARS / Fold change vs veh, MARS / RFU, ZNF655 / Fold change vs veh, ZNF655 / RFU, FAHD1 / Fold change vs veh, FAHD1 / RFU, BDP1 / Fold change vs veh, BDP1 / RFU, LRRCC1 / Fold change vs veh, LRRCC1 / RFU, ARID1A / Fold change vs veh, ARID1A / RFU, ZNF146 / Fold change vs veh, ZNF146 / RFU, ZNF330 / Fold change vs veh, ZNF330 / RFU, GPN3 / Fold change vs veh, GPN3 / RFU, C9orf123 / Fold change vs veh, C9orf123 / RFU, N4BP2L2 / Fold change vs veh, N4BP2L2 / RFU, ARFIP1 / Fold change vs veh, ARFIP1 / RFU, FAM179B / Fold change vs veh, FAM179B / RFU, BCL10 / Fold change vs veh, BCL10 / RFU, UHRF1BP1L / Fold change vs veh, UHRF1BP1L / RFU, BET1 / Fold change vs veh, BET1 / RFU, CNOT2 / Fold change vs veh, CNOT2 / RFU, ZNF268 / Fold change vs veh, ZNF268 / Fold change vs veh, ZNF507 / RFU, DGCR2 / Fold change vs veh, DGCR2 / RFU, WDSUB1 / Fold change vs veh, WDSUB1 / Fold change vs veh, HSP90B1 /// MIR3652 / RFU, ADSS / Fold change vs veh, ADSS / RFU, GK / Fold change vs veh, GK / RFU, ZNF148 / Fold change vs veh, ZNF148 / RFU, TAF9 / Fold change vs veh, TAF9 / RFU, SLC1A5 / Fold change vs veh, SLC1A5 / RFU, SLMO2 / Fold change vs veh, SLMO2 / RFU, ABCC4 / Fold change vs veh, ABCC4 / RFU, LOC101060439 /// RAP1B / Fold change vs veh, LOC101060439 /// RAP1B / RFU, RFX7 / Fold change vs veh, RFX7 / RFU, GTPBP10 / Fold change vs veh, GTPBP10 / RFU, CNEP1R1 / Fold change vs veh, CNEP1R1 / RFU, BIVM-ERCC5 /// ERCC5 / Fold change vs veh, BIVM-ERCC5 /// ERCC5 / RFU, ILF3 / Fold change vs veh, ILF3 / RFU 11762660_at / Fold change /veh 11762660_at / RFU VCAN (11757783_s_at) / Fold change /veh VCAN (11757783_s_at) / RFU DDX43 (11728927_at) / Fold change /veh DDX43 (11728927_at) / RFU KRT8 (11758188_x_at) / Fold change /veh KRT8 (11758188_x_at) / RFU NKD1 (11759106_at) / Fold change /veh NKD1 (11759106_at) / RFU SRD5A1 (11742802_a_at) / Fold change /veh SRD5A1 (11742802_a_at) / RFU TPSAB1 /// TPSB2 (11721975_s_at) / Fold change /veh TPSAB1 /// TPSB2 (11721975_s_at) / RFU GSTM3 (11746129_a_at) / Fold change /veh GSTM3 (11746129_a_at) / RFU IL23R (11737362_x_at) / Fold change /veh IL23R (11737362_x_at) / RFU TMEM51 (11727254_a_at) / Fold change /veh TMEM51 (11727254_a_at) / RFU PIWIL2 (11732686_x_at) / Fold change /veh PIWIL2 (11732686_x_at) / RFU ORM1 (11744905_x_at) / Fold change /veh ORM1 (11744905_x_at) / RFU CCDC152 (11743942_at) / Fold change /veh CCDC152 (11743942_at) / RFU ECM1 (11717891_a_at) / Fold change /veh ECM1 (11717891_a_at) / RFU IL23R (11748794_a_at) / Fold change /veh IL23R (11748794_a_at) / RFU TNFAIP8L3 (11732012_x_at) / Fold change /veh TNFAIP8L3 (11732012_x_at) / RFU MBOAT4 (11741988_at) / Fold change /veh MBOAT4 (11741988_at) / RFU 11764193_at / Fold change /veh 11764193_at / RFU TMEM53 (11763286_at) / Fold change /veh TMEM53 (11763286_at) / RFU MAGEB2 (11727129_at) / Fold change /veh MAGEB2 (11727129_at) / RFU TMEM200A (11744735_a_at) / Fold change /veh TMEM200A (11744735_a_at) / RFU CCDC152 (11751479_a_at) / Fold change /veh CCDC152 (11751479_a_at) / RFU FAM211A (11726209_a_at) / Fold change /veh FAM211A (11726209_a_at) / RFU RGS16 (11746705_a_at) / Fold change /veh RGS16 (11746705_a_at) / RFU VCAN (11755009_s_at) / Fold change /veh VCAN (11755009_s_at) / RFU RHOB (11743442_s_at) / Fold change /veh RHOB (11743442_s_at) / RFU RGS16 (11720943_a_at) / Fold change /veh RGS16 (11720943_a_at) / RFU RGS16 (11720944_at) / Fold change /veh RGS16 (11720944_at) / RFU, VPS4B / Fold change vs veh, VPS4B / RFU, CREB1 / Fold change vs veh, CREB1 / RFU, DNAJC13 / Fold change vs veh, DNAJC13 / RFU, GNAQ / Fold change vs veh, GNAQ / RFU, CDK5R1 / Fold change vs veh, CDK5R1 / RFU, ZRANB3 / Fold change vs veh, ZRANB3 / RFU, CUL4A / Fold change vs veh, CUL4A / RFU, CCNY / Fold change vs veh, CCNY / RFU, UFL1 / Fold change vs veh, UFL1 / RFU, COG3 / Fold change vs veh, COG3 / RFU, DIAPH2 / Fold change vs veh, DIAPH2 / RFU, SKA2 / Fold change vs veh, SKA2 / RFU, AFF3 / Fold change vs veh, AFF3 / RFU, LMF1 / Fold change vs veh, LMF1 / RFU, IPO11 / Fold change vs veh, IPO11 / RFU, DFFB / Fold change vs veh, DFFB / RFU, FOXP1 / Fold change vs veh, FOXP1 / RFU, CARD8 / Fold change vs veh, CARD8 / RFU, STRN3 / Fold change vs veh, STRN3 / RFU, ADK / Fold change vs veh, ADK / RFU, RASSF2 / Fold change vs veh, RASSF2 / RFU, WIPF1 / Fold change vs veh, WIPF1 / RFU, LARP1B / Fold change vs veh, LARP1B / RFU, RASA1 / Fold change vs veh, RASA1 / RFU, RB1 / Fold change vs veh, RB1 / RFU, PPFIA1 / Fold change vs veh, PPFIA1 / RFU, MAT2A / Fold change vs veh, MAT2A / RFU, CCT5 / Fold change vs veh, CCT5 / RFU, WDR92 / Fold change vs veh, WDR92 / RFU, CUX1 / Fold change vs veh, CUX1 / RFU, TTC7A / Fold change vs veh, TTC7A / RFU, TMEM135 / Fold change vs veh, TMEM135 / RFU, DEPTOR / Fold change vs veh, DEPTOR / RFU, CPM / Fold change vs veh, CPM / RFU, DNAJB6 / Fold change vs veh, DNAJB6 / RFU, CACNA2D3 / Fold change vs veh, CACNA2D3 / RFU, DTX4 / Fold change vs veh, DTX4 / RFU, TFCP2 / Fold change vs veh, TFCP2 / RFU, GMCL1 /// GMCL1P1 / Fold change vs veh, GMCL1 /// GMCL1P1 / RFU, AEBP2 / Fold change vs veh, AEBP2 / RFU, SNHG1 /// SNORD22 /// SNORD25 /// SNORD26 /// SNORD27 /// SNORD28 /// SNORD29 /// SNORD31 / Fold change vs veh, SNHG1 /// SNORD22 /// SNORD25 /// SNORD26 /// SNORD27 /// SNORD28 /// SNORD29 /// SNORD31 / Fold change (Aza/veh), C12orf56 (ProbeSet 11735607_a_at) / Fold change (ACY-1035/veh), C12orf56 (ProbeSet 11735607_a_at) / Fold change (Aza/veh), FGFR1OP (ProbeSet 11751329_s_at) / Fold change (ACY-1035/veh), FGFR1OP (ProbeSet 11751329_s_at) / Fold change (Aza/veh), VPS36 (ProbeSet 11739960_a_at) / Fold change (ACY-1035/veh), VPS36 (ProbeSet 11739960_a_at) / RFU SYPL1 (11715823_x_at) / Fold change /veh SYPL1 (11715823_x_at) / RFU IGFBP7 (11715501_s_at) / Fold change /veh IGFBP7 (11715501_s_at) / RFU REEP3 (11722064_at) / Fold change /veh REEP3 (11722064_at) / RFU IGLL1 (11728026_x_at) / Fold change /veh IGLL1 (11728026_x_at): dose or concentration left out as unconfirmed. The note with it: MV-4-11 cells, 48 hours.

Consider `Nc1ccc(-c2cccs2)cc1NC(=O)c1ccc2c(c1)cc(C1CC1)n2CCN1CCOCC1` [ACY-1035], for which the “Fold change /veh CYB561 (11721691_x_at)” value was 0.97.
